Results reported in ChEMBL document CHEMBL3525899, “Identification of the cytochrome P450 and other enzymes involved in the in vitro oxidative metabolism of a novel antidepressant, Lu AA21004” (Drug Metab Dispos, 2012).

Legend:
Liver microsome [1] = test: Drug metabolism in pooled human liver microsomes assessed as formation of 1-(2-(2,4-dimethylphenylsulfinyl)phenyl)piperazine at 100 uM after 30 to 180 mins by HPLC/MS-MS analysis in presence of NADPH regenerating system with NADP+; assay type: ADME
Liver microsome [2] = test: Drug metabolism in pooled human liver microsomes assessed as formation of 4-(2-(2,4-dimethylphenylthio)phenyl)piperazin-1-ol after 30 mins by Michaelis-Menten plot analysis in presence of NADPH regenerating system with NADP+; assay type: ADME; details: 0.5 h, read-out: Km(app)
Cytochrome P450 1A2 = molecular target: T1, Cytochrome P450 1A2 (Homo sapiens, UniProt P05177); test: Activity of human recombinant CYP1A2 expressed in microsomes isolated from human AHH-1 cells assessed as enzyme-mediated 3-(2,4-dimethylphenylthio)-4-(piperazin-1-yl)phenol formation at 8 to 50 uM after 120 mins by HPLC/MS-MS analysis in presence of NADPH regenerating system with NADP+; assay type: ADME, cell-free; details: 2 h
T1 sequence (P05177 whole entry): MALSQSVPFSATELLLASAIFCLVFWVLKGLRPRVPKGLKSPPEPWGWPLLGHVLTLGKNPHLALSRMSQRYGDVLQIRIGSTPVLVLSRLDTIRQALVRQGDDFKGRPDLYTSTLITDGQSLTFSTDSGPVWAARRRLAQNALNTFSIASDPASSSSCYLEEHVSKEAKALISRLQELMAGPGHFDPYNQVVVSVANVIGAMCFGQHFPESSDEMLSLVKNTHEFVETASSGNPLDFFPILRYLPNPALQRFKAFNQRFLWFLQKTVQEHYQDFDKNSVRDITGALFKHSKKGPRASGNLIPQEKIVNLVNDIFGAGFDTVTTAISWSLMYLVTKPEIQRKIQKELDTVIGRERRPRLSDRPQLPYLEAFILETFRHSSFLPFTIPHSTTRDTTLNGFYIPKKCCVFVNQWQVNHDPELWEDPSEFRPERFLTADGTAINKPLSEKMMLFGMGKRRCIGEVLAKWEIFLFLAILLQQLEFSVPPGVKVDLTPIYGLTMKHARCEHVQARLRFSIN

Cytochrome P450 2A6 = molecular target: T2, Cytochrome P450 2A6 (Homo sapiens, UniProt P11509); test: Activity of human recombinant CYP2A6 expressed in microsomes isolated from human AHH-1 cells assessed as enzyme-mediated 1-(2-(2,4-dimethylphenylsulfinyl)phenyl)piperazine formation at 8 to 50 uM after 120 mins by HPLC/MS-MS analysis in presence of NADPH regenerating system with NADP+; assay type: ADME, cell-free; details: 2 h
T2 sequence (P11509 whole entry): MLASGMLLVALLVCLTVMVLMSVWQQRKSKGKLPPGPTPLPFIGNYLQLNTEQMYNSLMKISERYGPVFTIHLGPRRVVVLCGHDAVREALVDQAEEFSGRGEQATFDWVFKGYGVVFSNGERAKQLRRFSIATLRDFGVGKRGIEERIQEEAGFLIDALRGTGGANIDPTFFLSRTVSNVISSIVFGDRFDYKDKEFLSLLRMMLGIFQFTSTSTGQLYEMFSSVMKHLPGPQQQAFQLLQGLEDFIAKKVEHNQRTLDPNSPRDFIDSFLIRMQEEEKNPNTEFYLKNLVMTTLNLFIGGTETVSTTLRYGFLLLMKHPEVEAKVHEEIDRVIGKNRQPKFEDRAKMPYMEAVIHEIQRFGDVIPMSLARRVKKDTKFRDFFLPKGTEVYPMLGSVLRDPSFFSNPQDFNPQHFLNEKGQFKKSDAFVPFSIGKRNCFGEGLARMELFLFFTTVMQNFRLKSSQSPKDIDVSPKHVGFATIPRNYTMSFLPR

Liver microsome [3] = test: Drug metabolism in pooled human liver microsomes assessed as formation of 1-(2-(2,4-dimethylphenylsulfinyl)phenyl)piperazine per mg of protein after 30 mins by Michaelis-Menten plot analysis in presence of NADPH regenerating system with NADP+; assay type: ADME; details: 0.5 h

`Br.Cc1ccc(Sc2ccccc2N2CCNCC2)c(C)c1` [VORTIOXETINE HYDROBROMIDE] was tested, and the Drug metabolism (Liver microsome [1]) was “metabolite_detected”, the Km (Liver microsome [2]) was 300 µM and the Drug metabolism (Cytochrome P450 1A2) was “metabolite_not_detected”. For the same compound, the Drug metabolism (Cytochrome P450 2A6) was “metabolite_detected” and the “Vmax(app)” value (Liver microsome [3]) was “>= 227 pmol/min”.
